Test results reported in ChEMBL document CHEMBL1130027, “Improved P1/P1' substituents for cyclic urea based HIV-1 protease inhibitors: synthesis, structure-activity relationship, and X-ray crystal structure analysis” (J Med Chem, 1997).

Key:
MT2 = test: Cellular antiviral activity (IC90) assessed on human MT-2 cells infected with HIV-RF; format: functional
[1] = target: Human immunodeficiency virus type 1 protease (Human immunodeficiency virus 1, UniProt Q72874); test: Compound was tested for binding affinity against HIV-1 Protease
[2] = In vivo evaluation of maximum plasma concentration at a dose of 10 mg/kg; format: ADME, organism-based; parameters: dose 10 mg/kg
[3] = Oral bioavailability in dog; format: ADME, organism-based, Canis lupus familiaris; conditions: in vivo
[4] = The half life in dog; format: ADME, organism-based, Canis lupus familiaris; conditions: in vivo

Row | SMILES | IC90 (MT2) [nM] | Ki [1] [nM] | Cmax [2] [ng/mL] | bioavailability [3] [%] | half-life [4] [min]
1 | COc1ccc(C[C@@H]2[C@H](O)[C@@H](O)[C@@H](Cc3ccc(OC)c(OC)c3)N(Cc3ccccc3)C(=O)N2Cc2ccccc2)cc1OC | 640 | 6.4 | – | – | –
2 | O=C1N(Cc2ccccc2)[C@H](Cc2ccc3c(c2)OCCO3)[C@H](O)[C@@H](O)[C@@H](Cc2ccc3c(c2)OCCO3)N1Cc1ccccc1 | 112 | 0.44 | – | – | –
3 | CC(=O)c1cccc(CN2C(=O)N(Cc3cccc(C(C)=O)c3)[C@H](Cc3ccc4c(c3)OCO4)[C@H](O)[C@@H](O)[C@H]2Cc2ccc3c(c2)OCO3)c1 | 14.7 | 0.043 | – | – | –
4 | CNc1cccc(CN2C(=O)N(Cc3cccc(NC)c3)[C@H](Cc3ccc4c(c3)OCCO4)[C@H](O)[C@@H](O)[C@H]2Cc2ccc3c(c2)OCCO3)c1 | 8.7 | 0.14 | 220 | 4.6 | 48
5 | O=C1N(Cc2ccccc2)[C@H](Cc2ccc3c(c2)OCO3)[C@H](O)[C@@H](O)[C@@H](Cc2ccc3c(c2)OCO3)N1Cc1ccccc1 | 504 | 1 | – | – | –
6 | CNc1cccc(CN2C(=O)N(Cc3cccc(NC)c3)[C@H](Cc3ccc4c(c3)CCO4)[C@H](O)[C@@H](O)[C@H]2Cc2ccc3c(c2)CCO3)c1 | 61.6 | 0.2 | – | – | –
7 | Nc1cccc(CN2C(=O)N(Cc3cccc(N)c3)[C@H](Cc3ccc4c(c3)OCCO4)[C@H](O)[C@@H](O)[C@H]2Cc2ccc3c(c2)OCCO3)c1 | 40 | 0.04 | – | – | –
8 | CNc1cccc(CN2C(=O)N(Cc3cccc(N)c3)[C@H](Cc3ccc4c(c3)OCCO4)[C@H](O)[C@@H](O)[C@H]2Cc2ccc3c(c2)OCCO3)c1 | 27 | 0.11 | – | – | –
9 | CC(=O)c1cc(CN2C(=O)N(Cc3ccc(F)c(C(C)=O)c3)[C@H](Cc3ccc4c(c3)OCCO4)[C@H](O)[C@@H](O)[C@H]2Cc2ccc3c(c2)OCCO3)ccc1F | 84 | 0.64 | – | – | –
10 | CC(=O)c1cc(CN2C(=O)N(Cc3ccc(F)c(C(C)=O)c3)[C@H](Cc3ccc4c(c3)OCO4)[C@H](O)[C@@H](O)[C@H]2Cc2ccc3c(c2)OCO3)ccc1F | 265 | 1.5 | – | – | –
11 | O=C1N(Cc2ccc(O)cc2)[C@H](Cc2ccc3c(c2)OCCO3)[C@H](O)[C@@H](O)[C@@H](Cc2ccc3c(c2)OCCO3)N1Cc1ccc(O)cc1 | 107 | 0.03 | – | – | –
12 | O=C1N(Cc2ccc(CO)cc2)[C@H](Cc2ccc3c(c2)OCCO3)[C@H](O)[C@@H](O)[C@@H](Cc2ccc3c(c2)OCCO3)N1Cc1ccc(CO)cc1 | 83 | 0.05 | – | – | –
13 | O=C1N(CC2CC2)[C@H](Cc2ccc3c(c2)OCCO3)[C@H](O)[C@@H](O)[C@@H](Cc2ccc3c(c2)OCCO3)N1CC1CC1 | 928 | 0.27 | – | – | –
14 | CC(=O)c1cccc(CN2C(=O)N(Cc3cccc(C(C)=O)c3)[C@H](Cc3ccc4c(c3)OCCO4)[C@H](O)[C@@H](O)[C@H]2Cc2ccc3c(c2)OCCO3)c1 | 4.2 | 0.04 | – | – | –
15 | COc1cc(C[C@@H]2[C@H](O)[C@@H](O)[C@@H](Cc3cc(OC)cc(OC)c3)N(Cc3cccc(C(C)=O)c3)C(=O)N2Cc2cccc(C(C)=O)c2)cc(OC)c1 | 46.4 | 0.4 | – | – | –
16 | COc1cc(C[C@@H]2[C@H](O)[C@@H](O)[C@@H](Cc3cc(OC)cc(OC)c3)N(Cc3ccccc3)C(=O)N2Cc2ccccc2)cc(OC)c1 | > 5000 | 8 | – | – | –
17 | O=C1N(Cc2ccccc2)[C@H](Cc2ccc3ccccc3c2)[C@H](O)[C@@H](O)[C@@H](Cc2ccc3ccccc3c2)N1Cc1ccccc1 | 3200 | – | – | – | –
18 | CC(=O)c1cccc(CN2C(=O)N(Cc3cccc(C(C)=O)c3)[C@H](Cc3ccc4c(c3)CCO4)[C@H](O)[C@@H](O)[C@H]2Cc2ccc3c(c2)CCO3)c1 | 10 | 0.048 | – | – | –
19 | Nc1cccc(CN2C(=O)N(Cc3cccc(N)c3)[C@H](Cc3ccc4c(c3)CCO4)[C@H](O)[C@@H](O)[C@H]2Cc2ccc3c(c2)CCO3)c1 | 30.6 | 0.11 | – | – | –
20 | CC(=O)c1cccc(CN2C(=O)N(Cc3cccc(C(C)=O)c3)[C@H](Cc3ccc4c(c3)N(C)CCO4)[C@H](O)[C@@H](O)[C@H]2Cc2ccc3c(c2)N(C)CCO3)c1 | 16.4 | 0.08 | – | – | –
21 | CN1CCOc2ccc(C[C@@H]3[C@H](O)[C@@H](O)[C@@H](Cc4ccc5c(c4)N(C)CCO5)N(Cc4ccccc4)C(=O)N3Cc3ccccc3)cc21 | 218 | 0.7 | – | – | –
22 | O=C1N(Cc2ccccc2)[C@H](Cc2ccccc2)[C@H](O)[C@@H](O)[C@@H](Cc2ccccc2)N1Cc1ccccc1 | 790 | – | – | – | –
23 | O=C1N(Cc2ccc3ccccc3c2)[C@H](Cc2ccc3c(c2)OCCO3)[C@H](O)[C@@H](O)[C@@H](Cc2ccc3c(c2)OCCO3)N1Cc1ccc2ccccc2c1 | 98 | 0.04 | – | – | –
24 | O=C1N(Cc2ccccc2)[C@H](Cc2ccc3c(c2)CCO3)[C@H](O)[C@@H](O)[C@@H](Cc2ccc3c(c2)CCO3)N1Cc1ccccc1 | 305 | – | – | – | –
